Reference: patent US8293769B2, “CSF-1R inhibitors, compositions, and methods of use” (Novartis AG, priority 2008, dated 2012)

Assays:
[1] = biological target: T1, cytoplasmic domain of the human CSF-1R (Homo sapiens, UniProt P07333); assay: In vitro kinase assay for CSF-1R (AlphaScreen); type: biochemical; conditions: tested at about 1 μM; read-out: CSF1RK 1 percent inhibition
T1 construct: Recombinant protein corresponding to the cytoplasmic domain of the human CSF-1R; purchased Invitrogen Corporation, Carlsbad, Calif; PV3249
T1 sequence (P07333 539-972 limits assumed): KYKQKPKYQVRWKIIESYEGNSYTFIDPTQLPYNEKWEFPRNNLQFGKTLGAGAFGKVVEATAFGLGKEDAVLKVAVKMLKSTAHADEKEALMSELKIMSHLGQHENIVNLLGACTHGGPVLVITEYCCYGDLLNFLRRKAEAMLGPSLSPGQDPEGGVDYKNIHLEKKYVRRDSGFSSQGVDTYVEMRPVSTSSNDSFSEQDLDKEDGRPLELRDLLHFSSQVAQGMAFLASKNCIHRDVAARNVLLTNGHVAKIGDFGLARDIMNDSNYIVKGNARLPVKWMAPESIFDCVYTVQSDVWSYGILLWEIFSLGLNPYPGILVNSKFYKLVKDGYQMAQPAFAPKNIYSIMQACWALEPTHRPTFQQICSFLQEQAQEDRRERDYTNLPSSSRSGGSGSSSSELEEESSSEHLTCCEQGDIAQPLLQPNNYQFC
Procedure: The kinase activity of various protein tyrosine kinases can be measured by providing ATP and a suitable peptide or protein tyrosine-containing substrate, and assaying the transfer of phosphate moiety to the tyrosine residue. Recombinant protein corresponding to the cytoplasmic domain of the human CSF-1R was purchased from Invitrogen Corporation, Carlsbad, Calif. U.S.A. (#PV3249). For each assay, test compounds were serially diluted, starting at 25 μM with 3 fold dilutions, in DMSO in 384 well plates then mixed with an appropriate kinase reaction buffer consisting of 50 mM Hepes, 5 mM MgCl2, 10 mM MnCl2, 0.1% BSA, pH 7.5, 1.0 mM dithiothreitol, 0.01% Tween 80 plus 1 μM ATP. Kinase protein and an appropriate biotinylated peptide substrate at 50 nM were added to give a final volume of 20 μL, reactions were incubated for 2 hours at room temperature and stopped by the addition of 10 μL of 45 mM EDTA, 50 mM Hepes pH 7.5. Added to the stopped reaction mix was 30 μL of PT66 Alphascreen beads (Perkin Elmer, Boston, Mass., U.S.A.). The reaction was incubated overnight and read on the Envision (Perkin Elmer). Phosphorylated peptide product was measured with the AlphaScreen system (Perkin Elmer) using acceptor beads coated with anti-phosphotyrosine antibody PT66 and donor beads coated with streptavidin that emit a fluorescent signal at the 520-620 nm emission wave length if in close proximity. The concentration of each compound for 50% inhibition (IC50) was calculated by non-linear regression using XL Fit data analysis software.
CSF-1R kinase was assayed in 50 mM Hepes pH 7.0, 5 mM MgCl2, 10 mM MnCl2, 1 mM DTT, 1 mg/mL BSA, 1.0 μM ATP, and 0.05 μM biotin-GGGGRPRAATF-NH2 (SEQ ID NO:1) peptide substrate. CSF-1R kinase was added at final concentration of 4 nM.

[2] = biological target: T2, cKIT (Homo sapiens, UniProt P10721); assay: cKIT kinase in vitro biochemical assay (alphascreen); conditions: tested at about 1 μM; read-out: CKIT percent inhibition
T2 construct: The kinase domain of cKIT was assayed in 50 mM Hepes; purchased Upstate 14-559
T2 sequence (P10721 589-937 limits assumed): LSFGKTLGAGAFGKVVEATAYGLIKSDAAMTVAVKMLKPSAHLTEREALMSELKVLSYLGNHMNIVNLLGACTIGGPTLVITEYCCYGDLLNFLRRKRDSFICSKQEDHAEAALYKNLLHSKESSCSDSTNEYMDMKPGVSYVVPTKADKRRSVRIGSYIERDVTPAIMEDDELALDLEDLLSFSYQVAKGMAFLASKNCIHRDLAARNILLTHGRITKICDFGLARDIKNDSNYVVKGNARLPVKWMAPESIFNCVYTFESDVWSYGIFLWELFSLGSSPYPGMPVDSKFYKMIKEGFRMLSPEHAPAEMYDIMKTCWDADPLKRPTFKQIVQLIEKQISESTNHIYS
Procedure: (§1) The IC50 values for the inhibition of RTKs were determined in the alphascreen format measuring the inhibition by compound of phosphate transfer to a substrate by the respective enzyme. Briefly, the respective RTK domain purchased as human recombinant protein (cKIT Upstate #14-559, PDGFRb Invitrogen #P3082) were incubated with serial dilutions of compound in the presence of substrate and ATP concentrations within 3 times the Km of the enzyme.
(§2) The kinase domain of cKIT was assayed in 50 mM Hepes, pH=7.5, 5 mM MgCl2, 10 mM MnCl2, 1 mM DTT, 0.1% BSA with 0.06 uM biotinylated peptide substrate (GGLFDDPSYVNVQNL-NH2) and 15 uM ATP (ATP KM apparent=15 uM). The kinase domain of PDGFRβ was assayed in 50 mM Hepes, pH=7.5, 20 mM MgCl2, 1 mM DTT, 0.1% BSA with 0.1 uM biotinylated peptide substrate (GGLFDDPSYVNVQNL-NH2) and 10 uM ATP (ATP KM apparent=25 uM). Reactions were incubated at room temperature for 3 to 4 hr and stopped with buffer (20 mM EDTA, 0.01% Tween-20 for both PDGFRb and cKIT). Alphascreen PY20 beads were added to the stopped cKIT reactions and PY20 Ab/Protein A Alphascreen beads were added to the PDGFRβ stopped reactions. Both reactions were incubated overnight and read on the Alphascreen reader. The concentration of compound for 50% inhibition (IC50) was calculated employing non-linear regression using XL-Fit data analysis software. As a control compound, staurosporine is run in every assay and a Z′>0.5 is required to validate results.

[3] = biological target: T3, PDGFRb (Homo sapiens, UniProt P09619); assay: PDGFRb kinase in vitro biochemical assay (alphascreen); conditions: tested at about 1 μM; read-out: PDGF RK BETA percent inhibition
T3 construct: The kinase domain of PDGFRβ was assayed in 50 mM Hepes; purchased Invitrogen P3082
T3 sequence (P09619 600-962 limits assumed): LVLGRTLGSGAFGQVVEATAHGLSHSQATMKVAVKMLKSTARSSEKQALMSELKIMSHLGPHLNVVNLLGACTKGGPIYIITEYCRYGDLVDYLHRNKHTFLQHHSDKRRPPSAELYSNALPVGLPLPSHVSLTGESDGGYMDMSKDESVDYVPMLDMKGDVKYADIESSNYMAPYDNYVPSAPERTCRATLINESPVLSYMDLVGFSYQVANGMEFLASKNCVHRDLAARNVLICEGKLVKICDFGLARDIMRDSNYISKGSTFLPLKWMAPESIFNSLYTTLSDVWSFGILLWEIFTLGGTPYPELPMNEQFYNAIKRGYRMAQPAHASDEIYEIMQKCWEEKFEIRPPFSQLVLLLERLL
Procedure: as §1, §2

inhibition at 1 µM [1]	inhibition at 1 µM [2]	inhibition at 1 µM [3]	Compound
43%	9%	9%	O[C@@H]1CCCC[C@H]1Nc1nc2ccc(Oc3cnc(Cl)c(-c4cccnc4)c3)cc2s1 [Compound 105, (1R,2R)-2-(6-(2-chloro-3,3′-bipyridin-5-yloxy)benzo[d]thiazol-2-ylamino) cyclohexanol]
100%	83%	6%	O[C@@H]1CCCC[C@H]1Nc1nc2ccc(Oc3cncc(-c4ccnc(N5CCOCC5)c4F)c3)cc2s1 [Compound 77]
100%	88%	9%	O[C@@H]1CCCC[C@H]1Nc1nc2ccc(Oc3cncc(-c4ccn[nH]4)c3)cc2s1 [Compound 78, (1R,2R)-2-(6-(5-(1H-pyrazol-5-yl)pyridin-3-yloxy)benzo [d]thiazol-2-ylamino)cyclohexanol]
100%	90%	31%	C[C@H](Nc1nc2ccc(Oc3ccc(N)nc3)cc2s1)C1CCCCC1 [Compound 100, (S)-6-(6-aminopyridin-3-yloxy)-N-(1-cyclohexylethyl)benzo[d]thiazol-2-amine]
86%	15%	15%	Nc1ccc(-c2cc(Oc3ccc4nc(N[C@@H]5CCCC[C@H]5O)sc4c3)cnc2Cl)cn1 [Compound 104, (1R,2R)-2-(6-(6′-amino-2-chloro-3,3′-bipyridin-5-yloxy)benzo[d]thiazol-2-ylamino)cyclohexanol]
32%	15%	0%	N#Cc1ccc(Oc2ccc3nc(N[C@@H]4CCCC[C@H]4O)sc3c2)cn1 [Compound 88, 5-(2-((1R,2R)-2-hydroxycyclohexylamino)benzo[d]thiazol-6-yloxy)picolinonitrile]
100%	76%	10%	O[C@@H]1CCCC[C@H]1Nc1nc2ccc(Oc3cncc(-c4ccc(N5CCOCC5)nc4)c3)cc2s1 [Compound 72, (1R,2R)-2-(6-(6′-morpholino-3,3′-bipyridin-5-yloxy)benzo[d]thiazol-2-ylamino)cyclohexanol]
39%	19%	1%	N#Cc1ccc(Oc2ccc3nc(NCC4CCCCC4)sc3c2)cn1 [Compound 86, 5-(2-(cyclohexylmethylamino)benzo [d]thiazol-6-yloxy) picolinonitrile]
25%	11%	1%	O=[N+]([O-])c1ccc(Oc2ccc3nc(NCC4CCCCC4)sc3c2)cn1 [Compound 71, N-(cyclohexylmethyl)-6-(6-nitropyridin-3-yloxy)benzo [d]thiazol-2-amine]
100%	94%	36%	O[C@@H]1CCCC[C@H]1Nc1nc2ccc(Oc3cncc(-c4ccccn4)c3)cc2s1 [Compound 67]

The remaining lines, values behind:

Compound	inhibition at 1 µM [1]	inhibition at 1 µM [2]	inhibition at 1 µM [3]
CNC(=O)c1cncc(Oc2ccc3nc(NCC4CCCCC4)sc3c2)n1 [Compound 50, 6-(2-(cyclohexylmethylamino)benzo [d]thiazol-6-yloxy)-N-methylpyrazine-2-carboxamide]	98%	32%	11%
O[C@@H]1CCCC[C@H]1Nc1nc2ccc(Oc3ccnc(Cl)n3)cc2s1 [Compound 6, (1R,2R)-2-(6-(2-chloropyrimidin-4-yloxy)benzo[d]thiazol-2-ylamino) cyclohexanol]	18%	19%	0%
O[C@@H]1CCCC[C@H]1Nc1nc2ccc(Oc3cncc(-c4cnc5[nH]ccc5c4)c3)cc2s1 [Compound 61, (1R,2R)-2-(6-(5-(1H-pyrrolo[2,3-b]pyridin-5-yl)pyridin-3-yloxy)benzo[d]thiazol-2-ylamino) cyclohexanol]	100%	84%	8%
CC(=O)NCCNc1cc(Oc2ccc3nc(NCC4CCCCC4)sc3c2)nc(N)n1 [Compound 14, N-(2-(2-amino-6-(2-(cyclohexyl-methylamino)benzo[d]thiazol-6-yloxy)pyrimidin-4-ylamino)ethyl)acetamide]	26%	23%	0%
CC(=O)NCCNc1cc(Oc2ccc3nc(NCC4CCCCC4)sc3c2)ncn1 [Compound 12, N-(2-(6-(2-(cyclohexylmethylamino)benzo[d]thiazol-6-yloxy)pyrimidin-4-ylamino)ethyl) acetamide]	80%	13%	37%
C[C@H](Nc1nc2ccc(Oc3cc(Cl)ncn3)cc2s1)C1CCCCC1 [Compound 35, (S)-6-(6-chloropyrimidin-4-yloxy)-N-(1-cyclohexylethyl) benzo[d]thiazol-2-amine]	79%	20%	2%
C[C@H](Nc1nc2ccc(Oc3ccnc(Cl)n3)cc2s1)C1CCCCC1 [Compound 36, (S)-6-(2-chloropyrimidin-4-yloxy)-N-(1-cyclohexylethyl)benzo[d]thiazol-2-amine]	59%	19%	0%
CN1CCN(c2ccc(-c3cncc(Oc4ccc5nc(N[C@@H]6CCCC[C@H]6O)sc5c4)c3)cn2)CC1 [Compound 62, (1R,2R)-2-(6-(6′-(4-methylpiperazin-1-yl)-3,3′-bipyridin-5-yloxy)benzo[d]thiazol-2-ylamino) cyclohexanol]	100%	77%	26%
CNC(=O)c1ccncc1Oc1ccc2nc(NCC3CCCCC3)sc2c1 [Compound 49, 3-(2-(cyclohexylmethylamino)benzo[d]thiazol-6-yloxy)-N-methylisonicotinamide]	95%	32%	6%
Nc1cc(Oc2ccc3nc(NCC4CCCCC4)sc3c2)nc(N)n1 [Compound 3, 6-(2-(cyclohexylmethylamino)benzo [d]thiazol-6-yloxy) pyrimidine-2,4-diamine]	19%	23%	0%
O[C@@H]1CCCC[C@H]1Nc1nc2ccc(Oc3cc(Cl)ncn3)cc2s1 [Compound 5, (1R,2R)-2-(6-(6-chloropyrimidin-4-yloxy)benzo[d]thiazol-2-ylamino) cyclohexanol]	41%	25%	0%
O[C@@H]1CCCC[C@H]1Nc1nc2ccc(Oc3cc(-n4cncn4)ncn3)cc2s1 [Compound 43, (1R,2R)-2-(6-(6-(1H-1,2,4-triazol-1-yl)pyrimidin-4-yloxy)benzo[d]thiazol-2-ylamino)cyclohexanol]	57%	15%	14%
